In article PMC10485003, “Antibiotic hyper-resistance in a class I aminoacyl-tRNA synthetase with altered active site signature motif” (Nature Communications, 2023):
Values joined by “and” are separate entries in the source; they are usually repeats but may differ in a detail not shown here. Equal entries are not always repeated.

Molecular target: T1, mut-GVHH PmIleRS2 (Priestia megaterium, UniProt A0A0B6AVD3, G56H/H54G)
T1 sequence (A0A0B6AVD3 1-1032 H54G/G56H): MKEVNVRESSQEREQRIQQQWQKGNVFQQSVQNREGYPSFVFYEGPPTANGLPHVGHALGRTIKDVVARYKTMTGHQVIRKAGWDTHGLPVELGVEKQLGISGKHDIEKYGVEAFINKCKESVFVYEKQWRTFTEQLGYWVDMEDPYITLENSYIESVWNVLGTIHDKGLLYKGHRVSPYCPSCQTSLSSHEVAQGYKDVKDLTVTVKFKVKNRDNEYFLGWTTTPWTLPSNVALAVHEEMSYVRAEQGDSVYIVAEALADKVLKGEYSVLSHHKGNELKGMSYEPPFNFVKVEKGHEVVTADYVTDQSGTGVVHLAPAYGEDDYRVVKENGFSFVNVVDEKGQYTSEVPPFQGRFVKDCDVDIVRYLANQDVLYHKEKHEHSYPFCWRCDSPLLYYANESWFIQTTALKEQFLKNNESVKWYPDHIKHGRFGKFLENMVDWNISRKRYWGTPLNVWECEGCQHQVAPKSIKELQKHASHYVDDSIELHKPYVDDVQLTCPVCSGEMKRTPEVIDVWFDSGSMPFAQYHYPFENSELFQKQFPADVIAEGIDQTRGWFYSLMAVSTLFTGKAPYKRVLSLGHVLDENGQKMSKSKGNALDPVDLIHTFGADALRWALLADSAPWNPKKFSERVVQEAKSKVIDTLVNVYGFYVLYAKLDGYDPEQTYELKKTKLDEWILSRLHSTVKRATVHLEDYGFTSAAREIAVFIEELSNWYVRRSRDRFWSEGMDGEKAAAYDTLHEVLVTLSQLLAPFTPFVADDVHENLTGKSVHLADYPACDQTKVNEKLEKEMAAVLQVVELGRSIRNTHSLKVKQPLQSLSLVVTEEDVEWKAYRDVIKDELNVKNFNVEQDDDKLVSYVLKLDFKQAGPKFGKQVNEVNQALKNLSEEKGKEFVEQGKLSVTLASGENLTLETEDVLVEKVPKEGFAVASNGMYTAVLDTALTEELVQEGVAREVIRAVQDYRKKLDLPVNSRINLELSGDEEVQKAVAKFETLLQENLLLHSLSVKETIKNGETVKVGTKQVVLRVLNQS
Test: ATP-PPi exchange assay, mupirocin inhibition of amino acid activation
Format: biochemical, Priestia (Bacillus) megaterium
Method: L-Ile and ATP concentrations ranged from 1/10 KM to 10 KM values. When measuring the KI towards one of the substrates, the other was held in saturation (concentrations at least 10 KM). The aliquots of the reaction mixture (1–2.5 μl) were quenched in 2 volumes of 500 mM NaOAc pH = 4.5, 0.1% SDS, and formed ^32P-ATP was separated from the remaining ^32P-PPi by thin-layer chromatography on Polygram CEL 300 PEI UV254 TLC plates (Macherey-Nagel, cat: 801063) using 750 mM KH2PO4 pH=3.5, 4 M urea buffer. Visualization and quantification of the signals was performed using a Typhoon Phosphoimager 5 (General Electric) and accompanying ImageQuant™ TL software (SV: 10.2). The kinetic constants were determined using a global fit option of the competitive inhibition model of GraphPad Prism 6 software (SV: 6.01). All experiments were performed in triplicates. The kcat was determined by dividing the maximal velocity, VM, with the used enzyme concentration. […]
variable substrate (ATP or Ile) was varied in the range of 0.1 KM to 10 KM. The other substrate (Ile or ATP) was kept in excess at 5 to 10 KM. Data were globally fitted to the competitive inhibition model using GraphPad prism 6.01 for Windows software. The values represent the average value ± SD of three independent experiments. Source data are provided as a Source Data file.

C/C(=C\C(=O)OCCCCCCCCC(=O)O)C[C@@H]1OC[C@H](C[C@@H]2O[C@H]2[C@@H](C)[C@H](C)O)[C@@H](O)[C@H]1O [mupirocin]
Ki (KI (MUP)ATP, amino acid activation assay, ATP as variable substrate, average ± SD of three independent experiments): 480 ± 10 µM | Ki (KI (MUP)Ile, amino acid activation step, ATP/PPi exchange assay, Ile varied, ATP saturating, average ± SD of three independent experiments): 460 ± 10 µM | Ki (KI, single replicates, mupirocin inhibition towards Ile, GraphPad Prism output, Repl1-Repl3): 470 µM and 480 µM and 420 µM | vo (c (mupirocin) = 0.5 mM, c (Ile) 100.0 μM, Replica 1): 0.01849 mM/min | vo (c (mupirocin) = 0.5 mM, c (Ile) 100.0 μM, Replica 2): 0.01948 mM/min | vo (c (mupirocin) = 0.5 mM, c (Ile) 250.0 μM, Replica 1): 0.03623 mM/min | vo (c (mupirocin) = 0.5 mM, c (Ile) 250.0 μM, Replica 2): 0.03682 mM/min | vo (c (mupirocin) = 0.5 mM, c (Ile) 250.0 μM, Replica 3): 0.03653 mM/min | vo (c (mupirocin) = 0.5 mM, c (Ile) 500.0 μM, Replica 1): 0.05582 mM/min | vo (c (mupirocin) = 0.5 mM, c (Ile) 500.0 μM, Replica 2): 0.05871 mM/min | vo (c (mupirocin) = 0.5 mM, c (Ile) 500.0 μM, Replica 3): 0.05786 mM/min | vo (c (mupirocin) = 0.5 mM, c (Ile) 1000.0 μM, Replica 1): 0.07169 mM/min | vo (c (mupirocin) = 0.5 mM, c (Ile) 1000.0 μM, Replica 2): 0.07587 mM/min | vo (c (mupirocin) = 0.5 mM, c (Ile) 1000.0 μM, Replica 3): 0.07605 mM/min | vo (c (mupirocin) = 0.5 mM, c (Ile) 1500.0 μM, Replica 1): 0.08634 mM/min | vo (c (mupirocin) = 0.5 mM, c (Ile) 1500.0 μM, Replica 2): 0.08442 mM/min | vo (c (mupirocin) = 0.5 mM, c (Ile) 1500.0 μM, Replica 3): 0.08419 mM/min | vo (c (mupirocin) = 1.0 mM, c (Ile) 100.0 μM, Replica 1): 0.01236 mM/min | vo (c (mupirocin) = 1.0 mM, c (Ile) 100.0 μM, Replica 2): 0.01246 mM/min | vo (c (mupirocin) = 1.0 mM, c (Ile) 100.0 μM, Replica 3): 0.01228 mM/min | vo (c (mupirocin) = 1.0 mM, c (Ile) 250.0 μM, Replica 1): 0.0294 mM/min | vo (c (mupirocin) = 1.0 mM, c (Ile) 250.0 μM, Replica 2): 0.02992 mM/min | vo (c (mupirocin) = 1.0 mM, c (Ile) 250.0 μM, Replica 3): 0.02794 mM/min | vo (c (mupirocin) = 1.0 mM, c (Ile) 500.0 μM, Replica 1): 0.04465 mM/min | vo (c (mupirocin) = 1.0 mM, c (Ile) 500.0 μM, Replica 2): 0.04713 mM/min | vo (c (mupirocin) = 1.0 mM, c (Ile) 500.0 μM, Replica 3): 0.04492 mM/min | vo (c (mupirocin) = 1.0 mM, c (Ile) 1000.0 μM, Replica 1): 0.06444 mM/min | vo (c (mupirocin) = 1.0 mM, c (Ile) 1000.0 μM, Replica 2): 0.06152 mM/min | vo (c (mupirocin) = 1.0 mM, c (Ile) 1000.0 μM, Replica 3): 0.06395 mM/min | vo (c (mupirocin) = 1.0 mM, c (Ile) 1500.0 μM, Replica 1): 0.07511 mM/min | vo (c (mupirocin) = 1.0 mM, c (Ile) 1500.0 μM, Replica 2): 0.07278 mM/min | vo (c (mupirocin) = 1.0 mM, c (Ile) 1500.0 μM, Replica 3): 0.07621 mM/min | vo (c (mupirocin) = 2.5 mM, c (Ile) 100.0 μM, Replica 1): 0.00609 mM/min | vo (c (mupirocin) = 2.5 mM, c (Ile) 100.0 μM, Replica 2): 0.00589 mM/min | vo (c (mupirocin) = 2.5 mM, c (Ile) 100.0 μM, Replica 3): 0.00628 mM/min | vo (c (mupirocin) = 2.5 mM, c (Ile) 250.0 μM, Replica 1): 0.01433 mM/min | vo (c (mupirocin) = 2.5 mM, c (Ile) 250.0 μM, Replica 2): 0.01642 mM/min | vo (c (mupirocin) = 2.5 mM, c (Ile) 250.0 μM, Replica 3): 0.01353 mM/min | vo (c (mupirocin) = 2.5 mM, c (Ile) 500.0 μM, Replica 1): 0.02701 mM/min | vo (c (mupirocin) = 2.5 mM, c (Ile) 500.0 μM, Replica 2): 0.02762 mM/min | vo (c (mupirocin) = 2.5 mM, c (Ile) 500.0 μM, Replica 3): 0.02637 mM/min | vo (c (mupirocin) = 2.5 mM, c (Ile) 1000.0 μM, Replica 1): 0.042 mM/min | vo (c (mupirocin) = 2.5 mM, c (Ile) 1000.0 μM, Replica 2): 0.04503 mM/min | vo (c (mupirocin) = 2.5 mM, c (Ile) 1000.0 μM, Replica 3): 0.03982 mM/min | vo (c (mupirocin) = 2.5 mM, c (Ile) 1500.0 μM, Replica 1): 0.05219 mM/min | vo (c (mupirocin) = 2.5 mM, c (Ile) 1500.0 μM, Replica 2): 0.055 mM/min | vo (c (mupirocin) = 2.5 mM, c (Ile) 1500.0 μM, Replica 3): 0.05194 mM/min | vo (c (mupirocin) = 5.0 mM, c (Ile) 100.0 μM, Replica 1): 0.00403 mM/min | vo (c (mupirocin) = 5.0 mM, c (Ile) 100.0 μM, Replica 2): 0.00438 mM/min | vo (c (mupirocin) = 5.0 mM, c (Ile) 100.0 μM, Replica 3): 0.00348 mM/min | vo (c (mupirocin) = 5.0 mM, c (Ile) 250.0 μM, Replica 1): 0.0082 mM/min | vo (c (mupirocin) = 5.0 mM, c (Ile) 250.0 μM, Replica 2): 0.00786 mM/min
